The assay has as its target P97 (Homo sapiens (Human), UniProt P55072). The assay is described as follows: P97 Biomolgreen ATPase assay, 200 μM ATP. The assay is classed as biochemical.
The mark [1] stands for this setting: read-out: P97 Biomolgreen, IC50.

Like-named read-outs stand apart in the source and are kept apart here.

These results are taken from patent US10894782B2, “Modulators of P97 AAA ATPase activity” (University of Pittsburgh—Of the Commonwealth System of …, priority 2016, dated 2021).

Chain of P97 (P55072 whole entry): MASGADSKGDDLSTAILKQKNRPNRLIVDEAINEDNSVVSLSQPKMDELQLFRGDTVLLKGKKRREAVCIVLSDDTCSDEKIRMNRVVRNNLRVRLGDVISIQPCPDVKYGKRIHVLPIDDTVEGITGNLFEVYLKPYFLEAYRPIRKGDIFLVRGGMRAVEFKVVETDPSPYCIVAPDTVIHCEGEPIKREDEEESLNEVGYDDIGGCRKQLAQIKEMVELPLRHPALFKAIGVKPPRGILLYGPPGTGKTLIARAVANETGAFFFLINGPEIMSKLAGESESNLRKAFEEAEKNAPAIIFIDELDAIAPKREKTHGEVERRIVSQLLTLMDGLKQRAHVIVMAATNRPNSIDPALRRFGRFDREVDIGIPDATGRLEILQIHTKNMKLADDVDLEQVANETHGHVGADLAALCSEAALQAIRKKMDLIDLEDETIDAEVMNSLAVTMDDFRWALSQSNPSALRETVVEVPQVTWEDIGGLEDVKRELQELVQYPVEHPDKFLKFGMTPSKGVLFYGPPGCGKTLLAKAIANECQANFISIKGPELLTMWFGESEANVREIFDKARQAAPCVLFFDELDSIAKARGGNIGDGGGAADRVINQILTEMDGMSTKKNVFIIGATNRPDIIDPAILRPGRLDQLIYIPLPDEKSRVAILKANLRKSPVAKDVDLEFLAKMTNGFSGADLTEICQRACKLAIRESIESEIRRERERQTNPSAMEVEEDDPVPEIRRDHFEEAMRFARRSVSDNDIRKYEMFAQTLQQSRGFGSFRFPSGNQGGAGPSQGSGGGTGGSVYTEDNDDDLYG

On to `Cc1cc(OCc2nnc(SC3C=CCCC3)n2-c2cccnc2)ccc1C#CCOC(=O)NCCN1CCN(C(C)C)CC1` (centres unmarked) [Compound 29], for which the IC50 under setting [1] is 0.019 µM.

Where the note is “P97 Biomolgreen, IC50 (μM)”, `[2H]C1([2H])C([2H])([2H])C([2H])([2H])C([2H])(Sc2nnc(COc3ccc(C#CC(C)N4CCOCC4)c(C)c3)n2-c2cccnc2)C1([2H])[2H]` (centres unmarked) [Compound 3] showed a 50% inhibitory concentration (IC50) of 0.17 µM.

Turning to `Cc1cc(OCc2nnc(SC3CCCC3)n2-c2cccnc2)ccc1C#CCN1CCOCC1` [Compound 8], the IC50 under setting [1] was determined as 0.039 µM.

On to `Cc1cc(OCc2nnc(SC3CCCC=C3F)n2-c2cccnc2)ccc1C#CCOC(=O)NCCN1CCN(C)CC1` (centres unmarked) [Compound 80], for which the IC50 under setting [1] was found to be 0.23 µM.

For the molecule `C#Cc1ccc(OCc2nnc(SC3C=CCCC3)n2-c2cccnc2)cc1C` (centres unmarked) [Compound 127], the IC50 under setting [1] came out at 0.038 µM.

In the case of `COc1cc(C#CCOC(=O)NC2CCN(C)CC2)c(F)cc1OCc1nnc(SC2C=CCCC2)n1-c1cccnc1` (centres unmarked) [Compound 122], the IC50 under setting [1] turned out to be 0.019 µM.

Turning to `Cc1cc(OCc2nnc(SC3C=CCCC3)n2-c2cccnc2)ccc1C#CCOC(=O)NCCN1CCN(C)CC1` (centres unmarked) [Compound 59], under setting [1], the IC50 came to 0.025 µM.

Turning to `C=CC(=O)NCC#Cc1ccc(OCc2nnc(SC3C=CCCC3)n2-c2cccnc2)cc1C` (centres unmarked) [Compound 92], under setting [1], the IC50 was 0.026 µM.

As to `Cc1cc(OCc2nnc(SC3C=CCCC3)n2-c2cccnc2)ccc1C#CCOC(=O)N1CCN(C)CC1` (centres unmarked) [Compound 76], under setting [1], the IC50 amounted to 0.03 µM.

Molecule `[2H]C1([2H])C([2H])([2H])C([2H])([2H])C([2H])(Sc2nnc(COc3ccc(C#CCOC(=O)NC)c(C)c3)n2-c2cccnc2)C1([2H])[2H]` [Compound 24] gave an IC50 (P97 Biomolgreen, IC50 (μM)) of 0.026 µM.

In the case of `CN1CCN(CCNC(=O)OCC#Cc2ccc(OCc3nnc(SC4C=CCCC4)n3-c3cccnc3)cc2C(F)(F)F)CC1` (centres unmarked) [Compound 82], under setting [1], the IC50 was found to be 0.043 µM.

As for `Cc1cc(OCc2nnc(SC3C=CCCC3)n2-c2cccnc2)ccc1C#CCNC(=O)CCl` (centres unmarked) [Compound 95], under setting [1], the IC50 worked out at 0.03 µM.

On to `Cc1cc(OCc2nnc(SC3C=CCCC3)n2-c2cccnc2)ccc1C#CCNS(=O)(=O)N(C)C` (centres unmarked) [Compound 33], for which the half-maximal inhibitory concentration (IC50) under setting [1] was 0.043 µM.

With `Cc1cc(OCc2nnc(SC3CCCC3)n2-c2cccnc2)ccc1C#CCN1CCS(=O)(=O)CC1` [Compound 44], the IC50 under setting [1] amounted to 0.18 µM.

Consider `Cc1cc(OCc2nnc(SC3C=CCCC3)n2-c2cccnc2)ccc1C#CCN` (centres unmarked) [Compound 4], for which the IC50 under setting [1] is 0.044 µM.

As for `N#Cc1cc(OCc2nnc(SC3C=CCCC3)n2-c2cccnc2)ccc1C#CCO` (centres unmarked) [Compound 115], the IC50 under setting [1] is 0.1 µM.

With `Cc1cc(OCc2nnc(SC3C=CCCC3)n2-c2cccnc2)ccc1C#CCNS(=O)(=O)N1CCOCC1` (centres unmarked) [Compound 63], the IC50 under setting [1] stood at 0.048 µM.

As to `Cc1cc(OCc2nnc(SC3C=CCCC3)n2-c2cccnc2)ccc1C#CCNS(=O)(=O)C1CC1` (centres unmarked) [Compound 18], the half-inhibitory concentration (IC50) under setting [1] came to 0.035 µM.

As for `Cc1cc(OCc2nnc(SC3CCCC3)n2-c2cccnc2)ccc1C#CCNS(C)(=O)=O` [Compound 13], the IC50 under setting [1] came to 0.05 µM.

With `Cc1cc(OCc2nnc(SC3CCCC3)n2-c2cccnc2)ccc1C#CCNC(=O)OC(C)(C)C` [Compound 43], the IC50 under setting [1] is 0.048 µM.

As to `Cc1cc(OCc2nnc(SC3C=CCCC3)n2-c2cccnc2)ccc1C#CCNC(=O)C1CC1` (centres unmarked) [Compound 103], the IC50 under setting [1] was 0.03 µM.

For `CCC(=O)NCC#Cc1ccc(OCc2nnc(SC3C=CCCC3)n2-c2cccnc2)cc1C` (centres unmarked) [Compound 112], the 50% inhibitory concentration (IC50) under setting [1] amounted to 0.025 µM.

With `Cc1cc(OCc2nnc(SC3C=CCCC3)n2-c2cccnc2)ccc1C#CCNCc1ccc(F)cc1` (centres unmarked) [Compound 39], under setting [1], the IC50 is 0.11 µM.

Regarding `COC(=O)NCC#Cc1ccc(OCc2nnc(SC3CCCC3)n2-c2cccnc2)cc1C` [Compound 12], the half-maximal inhibitory concentration (IC50) under setting [1] was determined as 0.029 µM.

As to `CN1CCN(CCNC(=O)OCC#Cc2ccc(OCc3nnc(SC4C=CCCC4)n3-c3cccnc3)cc2F)CC1` (centres unmarked) [Compound 77], the half-maximal inhibitory concentration (IC50) under setting [1] amounted to 0.02 µM.

For `Cc1cc(OCc2nnc(SC3CCCC3)n2-c2cccnc2)ccc1C#CCO` [Compound 89], under setting [1], the IC50 stood at 0.028 µM.

As to `Cc1cc(OCc2nnc(SC3CCCC3)n2-c2cccnc2)ccc1C#CCO` [Compound 58], the IC50 under setting [1] is 0.093 µM.

For the molecule `[2H]C1([2H])C([2H])([2H])C([2H])([2H])C([2H])(Sc2nnc(COc3ccc(C#CCOC(=O)NCCN4CCN(C(C)C)CC4)c(C)c3)n2-c2cccnc2)C1([2H])[2H]` [Compound 100], the 50% inhibitory concentration (IC50) (P97 Biomolgreen, IC50 (μM)) was found to be 0.025 µM.

With `Cc1cc(OCc2nnc(SC3C=CCCC3)n2-c2cccnc2)ccc1C#CC(C)(C)O` (centres unmarked) [Compound 28], the IC50 under setting [1] came out at 0.096 µM.

For `Cc1cc(OCc2nnc(SC3C=CCCC3)n2-c2cccnc2)ccc1C#CCNC1CCN(C)CC1` (centres unmarked) [Compound 19], the IC50 under setting [1] was 0.036 µM.

On to `Cc1cc(OCc2nnc(SC3CCCC=C3F)n2-c2cccnc2)ccc1C#CCOC(=O)NCCN1CCN(C(C)C)CC1` (centres unmarked) [Compound 81], for which the IC50 under setting [1] was 0.16 µM.

For `CN1CCC(NC(=O)OCC#Cc2ccc(OCc3nnc(SC4C=CCCC4)n3-c3cccnc3)c(F)c2F)CC1` (centres unmarked) [Compound 118], the IC50 under setting [1] was found to be 0.017 µM.

Regarding `Cc1cc(OCc2nnc(SC3C=CCCC3)n2-c2cccnc2)ccc1C#CCO` (centres unmarked) [Compound 79], the IC50 under setting [1] is 0.037 µM.

Regarding `Cc1cc(OCc2nnc(SC3C=CCCC3)n2-c2cccnc2)ccc1C#CCNC(=O)OC(C)(C)C` (centres unmarked) [Compound 40], the IC50 under setting [1] turned out to be 0.14 µM.

As for `Cc1cc(OCc2nnc(SC3CCCC3)n2-c2cccnc2)ccc1C#CCNC(=O)C(C)(C)C` [Compound 10], under setting [1], the IC50 was 0.092 µM.

`Cc1cc(C(=O)NCC#Cc2ccc(OCc3nnc(SC4C=CCCC4)n3-c3cccnc3)cc2C)no1` (centres unmarked) [Compound 104]: the IC50 under setting [1] is 0.05 µM.

As for `C/C=C/C(=O)NCC#Cc1ccc(OCc2nnc(SC3C=CCCC3)n2-c2cccnc2)cc1C` (centres unmarked) [Compound 87], under setting [1], the IC50 turned out to be 0.058 µM.

Turning to `OCC#Cc1ccc(OCc2nnc(SC3C=CCCC3)n2-c2cccnc2)cc1F` (centres unmarked) [Compound 97], the IC50 under setting [1] turned out to be 0.026 µM.

Turning to `[2H]C1([2H])C([2H])([2H])C([2H])([2H])C([2H])(Sc2nnc(COc3ccc(C#CCOC(=O)NCC(F)(F)F)c(C)c3)n2-c2cccnc2)C1([2H])[2H]` [Compound 20], the IC50 (P97 Biomolgreen, IC50 (μM)) was found to be 0.034 µM.

Take `CCC(=O)NCC#Cc1ccc(OCc2nnc(SC3C=CCCC3)n2-c2cccnc2)cc1C` (centres unmarked) [Compound 94]: under setting [1], the IC50 amounted to 0.03 µM.

The molecule `[2H]C1([2H])C([2H])([2H])C([2H])([2H])C([2H])(Sc2nnc(COc3ccc(C#CC(C)O)c(C)c3)n2-c2cccnc2)C1([2H])[2H]` (centres unmarked) [Compound 26] showed an IC50 (P97 Biomolgreen, IC50 (μM)) of 0.068 µM.

As to `C#Cc1ccc(OCc2nnc(CC3CCCC3)n2-c2cccnc2)cc1C` [Compound 51], under setting [1], the IC50 was found to be 0.44 µM.

In the case of `Cc1cc(OCc2nnc(SC3C=CCCC3)n2-c2cccnc2)ccc1C#CC(C)(C)NC(=O)OC(C)(C)C` (centres unmarked) [Compound 45], the IC50 under setting [1] worked out at 0.64 µM.

Regarding `Cc1cc(OCc2nnc(SC3C=CCCC3)n2-c2cccnc2)ccc1C#CCN(C)S(C)(=O)=O` (centres unmarked) [Compound 25], under setting [1], the IC50 was 0.066 µM.

In turn, `[2H]C1([2H])C([2H])([2H])C([2H])([2H])C([2H])(Sc2nnc(COc3ccc(C#CCOC(=O)NC(C)C)c(C)c3)n2-c2cccnc2)C1([2H])[2H]` [Compound 23] came in with an IC50 (P97 Biomolgreen, IC50 (μM)) of 0.032 µM.

Consider `Cc1cc(OCc2nnc(SC3C=CCCC3)n2-c2cccnc2)ccc1C#CCOC(=O)NCCN1CCN(C(C)C)CC1` (centres unmarked) [Compound 90], for which, under setting [1], the IC50 is 0.084 µM.

For the molecule `N#Cc1ccc(C#CCOCc2nnc(SC3CCCC3)n2-c2cccnc2)cc1` [Compound 56], the IC50 under setting [1] was greater than 6.7 µM.

Regarding `Cc1cc(OCc2nnc(SC3C=CCCC3)n2-c2cncc(Cl)c2)ccc1C#CCO` (centres unmarked) [Compound 84], the concentration for half-maximal inhibition (IC50) under setting [1] was 2.11 µM.

For the molecule `Cc1cc(OCc2nnc(SC3C=CCCC3)n2-c2cccnc2)ccc1C#CCNS(=O)(=O)N1CCN(C)CC1` (centres unmarked) [Compound 65], under setting [1], the IC50 amounted to 0.047 µM.

With `Cc1cc(OCc2nnc(SC3CCCC3)n2-c2cccnc2)ccc1C#CCNC(C)C` [Compound 11], the IC50 under setting [1] came out at 0.007 µM.

As for `[2H]C1([2H])C([2H])([2H])C([2H])([2H])C([2H])(Sc2nnc(COc3ccc(C#CCOC(=O)NC)c(F)c3)n2-c2cccnc2)C1([2H])[2H]` [Compound 106], the IC50 (P97 Biomolgreen, IC50 (μM)) was found to be 0.02 µM.

With `Cc1cc(OCc2nnc(SC3CCCC3)n2-c2cccnc2)ccc1C#CCOC(=O)NCCOCCNC(=O)CC1[C@H]2C[C@@H]3C[C@@H](C[C@H]1C3)C2` (some centres unmarked) [Compound 111], under setting [1], the IC50 amounted to 0.03 µM.

With `[2H]C1([2H])C([2H])([2H])C([2H])([2H])C([2H])(Sc2nnc(COc3ccc(C#CCOC(=O)NC4CCN(C)CC4)c(C)c3)n2-c2cccnc2)C1([2H])[2H]` [Compound 125], the midpoint of inhibition (P97 Biomolgreen, IC50 (μM)), the IC50, lay at 0.016 µM.

As to `C=CCSc1nnc(COc2ccc(C#CCNC(=O)CC)c(C)c2)n1-c1cccnc1` [Compound 131], the IC50 under setting [1] is 0.33 µM.

`[2H]C1([2H])C([2H])([2H])C([2H])([2H])C([2H])(Sc2nnc(COc3ccc(C#CCOC(=O)NCCN4CCN(C(C)C)CC4)c(C)c3)n2-c2cccnc2)C1([2H])[2H]` [Compound 21] registered an IC50 (P97 Biomolgreen, IC50 (μM)) of 0.034 µM.

`CCC(=O)NCC#Cc1ccc(OCc2nnc(SC[C@@]3(C)CO3)n2-c2cccnc2)cc1C` [Compound 130]: the “P97 Biomolgreen; 200 μM ATP; IC50 (μM)” value is given as “not active”.

For the molecule `Cc1cc(OCc2nnc(SC3C=CCCC3)n2-c2cccnc2)ccc1C#CCNCCN(C)C` (centres unmarked) [Compound 88], under setting [1], the IC50 came to 0.06 µM.

As for `[2H]C1([2H])C([2H])([2H])C([2H])([2H])C([2H])(Sc2nnc(COc3ccc(C#CCNC4CCN(C(C)C)CC4)c(C)c3)n2-c2cccnc2)C1([2H])[2H]` [Compound 38], half-maximal inhibition (P97 Biomolgreen, IC50 (μM)) (IC50) required 0.095 µM.

`Cc1cc(OCc2nnc(SC3C=CCCC3)n2-c2cccnc2)ccc1C#CCOC(=O)NCCN1CCN(C(C)C)CC1` (centres unmarked) [Compound 60]: the IC50 under setting [1] came out at 0.019 µM.

In turn, `[2H]C1([2H])C([2H])([2H])C([2H])([2H])C([2H])(Sc2nnc(COc3ccc(C#CCOC(=O)OCC#Cc4ccc(OCc5nnc(SC6([2H])C([2H])([2H])C([2H])([2H])C([2H])([2H])C6([2H])[2H])n5-c5cccnc5)cc4C)c(C)c3)n2-c2cccnc2)C1([2H])[2H]` [Compound 133] gave an IC50 (P97 Biomolgreen, IC50 (μM)) of 0.91 µM.

Turning to `Cc1cc(OCc2nnc(CC3CCCC3)n2-c2cccnc2)ccc1C#CCOC(=O)NCCN1CCN(C(C)C)CC1` [Compound 66], under setting [1], the IC50 was 0.12 µM.

Regarding `[2H]C1([2H])C([2H])([2H])C([2H])([2H])C([2H])(Sc2nnc(COc3ccc(C#CCN4CCS(=O)(=O)CC4)c(C)c3)n2-c2cccnc2)C1([2H])[2H]` [Compound 41], where the note is “P97 Biomolgreen, IC50 (μM)”, the IC50 turned out to be 0.16 µM.
